The values that follow come from US20250353891A1 (MEDIMMUNE LIMITED, priority 2022, published 2025).

As usually defined, the EC50 is the concentration at which the effect is half-maximal.

Assay [1] concerns the target human glucagon receptor (hGCGR) (Homo sapiens, UniProt P47871). Put plainly: cAMP production (HTRF) in CHO cells expressing hGCGR. The class given is cell-based. Also on record: expressed in transfected cells. Conditions: Table 6, peptides modified at position 17; cAMP in CHO hGCGR cells; geometric mean; read-out: hGluc-R EC50. Put shortly:
(§1)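 Potency values represent EC50 from 4-parameter logistic curves of HTRF % Delta F signal. Receptor-expressing CHO cells (hGCGR 2×10^5 cells/mL, hGLP-1R 1×10^5 cells/mL) were exposed for 30 min at room temperature before two-step cAMP detection.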

In assay [2] the target is human GLP-1 receptor (hGLP-1R) (Homo sapiens, UniProt P43220). As to the kind of experiment: cAMP production (HTRF) in CHO cells expressing hGLP-1R. Format: cell-based. Also on record: expressed in transfected cells. The conditions noted are these: for EC50: Table 6, peptides modified at position 17, cAMP in CHO hGLP-1R cells, geometric mean, read-out: hGLP-1R EC50; for % Relative Potency Ratio: Table 6, % GLP-1R activity relative to GLP-1 / % GlucR activity relative to glucagon. Put shortly: as §1
human GLP-1 receptor (hGLP-1R), sequence (P43220 24-463): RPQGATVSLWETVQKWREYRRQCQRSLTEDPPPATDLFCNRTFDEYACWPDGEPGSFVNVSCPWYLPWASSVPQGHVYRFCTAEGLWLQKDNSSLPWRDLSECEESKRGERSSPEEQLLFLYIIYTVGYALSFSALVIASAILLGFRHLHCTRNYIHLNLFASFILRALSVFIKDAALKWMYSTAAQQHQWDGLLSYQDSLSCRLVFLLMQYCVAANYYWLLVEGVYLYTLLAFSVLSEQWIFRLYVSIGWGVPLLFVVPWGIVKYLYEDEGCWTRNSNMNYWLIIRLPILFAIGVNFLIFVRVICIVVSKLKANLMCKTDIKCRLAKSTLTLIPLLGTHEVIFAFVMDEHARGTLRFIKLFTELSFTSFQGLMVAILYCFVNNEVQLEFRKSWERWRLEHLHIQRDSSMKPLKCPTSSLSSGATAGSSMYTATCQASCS
(Cyclic AMP is a second messenger, typically raised through Gs and lowered through Gi signalling.)

Starred links: 1 amine or outer side, 2 acyl side, 3 side chain; linkers in the order of their positions; H or OH if unused. Non-standard residues stand in square brackets, D forms with d. Residues, ends and D or L forms follow the SMILES beside them. Groups on a side chain read outwards from the residue. *: point of attachment. C18 diacid = O=C(O)CCCCCCCCCCCCCCCCC(=O)*; γGlu = O=C(O)[C@H](CCC(=O)[*:2])N[*:1]; Stearoyl = CCCCCCCCCCCCCCCCCC(=O)*; Palmitoyl = CCCCCCCCCCCCCCCC(=O)*; αMeF = C[C@](N)(Cc1ccccc1)C(=O)O; PEG2 = NCCOCCOCCC(=O)O; AEEA = NCCOCCOCC(=O)O; Aib = CC(C)(N)C(=O)O

human glucagon receptor (hGCGR), sequence (P47871 26-477): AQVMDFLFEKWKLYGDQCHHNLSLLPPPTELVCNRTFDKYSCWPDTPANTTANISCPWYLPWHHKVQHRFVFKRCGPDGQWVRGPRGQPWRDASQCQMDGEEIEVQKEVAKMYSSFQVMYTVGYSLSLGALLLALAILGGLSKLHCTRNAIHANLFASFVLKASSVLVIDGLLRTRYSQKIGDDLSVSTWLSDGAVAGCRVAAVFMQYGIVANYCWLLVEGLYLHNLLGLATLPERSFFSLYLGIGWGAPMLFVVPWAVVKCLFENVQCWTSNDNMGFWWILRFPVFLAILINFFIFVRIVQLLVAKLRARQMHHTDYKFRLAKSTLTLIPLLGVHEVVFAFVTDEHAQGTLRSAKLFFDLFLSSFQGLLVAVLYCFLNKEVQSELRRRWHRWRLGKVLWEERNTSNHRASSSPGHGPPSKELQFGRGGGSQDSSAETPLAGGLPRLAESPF

`CCCCCCCCCCCCCCCC(=O)N[C@@H](CCC(=O)N[C@@H](CCC(=O)NCCOCCOCCC(=O)NCCOCCOCCC(=O)NCCCC[C@H](NC(=O)[C@H](CO)NC(=O)[C@H](CC(=O)O)NC(=O)[C@H](CC(C)C)NC(=O)C(C)(C)NC(=O)[C@H](CCCCN)NC(=O)[C@H](CO)NC(=O)[C@@H](NC(=O)[C@H](CC(=O)O)NC(=O)[C@H](CO)NC(=O)[C@@H](NC(=O)[C@](C)(Cc1ccccc1)NC(=O)[C@H](CO)NC(=O)CNC(=O)[C@H](CCC(N)=O)NC(=O)[C@H](CO)NC(=O)[C@@H](N)Cc1c[nH]cn1)[C@@H](C)O)C(C)C)C(=O)N[C@@H](C)C(=O)N[C@@H](C)C(=O)N[C@@H](CCC(N)=O)C(=O)N[C@@H](CC(=O)O)C(=O)N[C@@](C)(Cc1ccccc1)C(=O)N[C@H](C(=O)N[C@@H](CCC(N)=O)C(=O)N[C@@H](Cc1c[nH]cn1)C(=O)N[C@H](C(=O)N[C@@H](C)C(=O)N[C@@H](CC(N)=O)C(N)=O)[C@@H](C)CC)C(C)C)C(=O)O)C(=O)O` [Peptide 106] (H-HSQGS[αMeF]TSDVSK[Aib]LDSK([PEG2-PEG2-γGlu-γGlu-Palmitoyl])AAQD[αMeF]VQHIAN-NH2): in assay [1], the EC50 was 0.0368 nM. Besides, in assay [2], the EC50 was 0.00682 nM and the “% Relative Potency Ratio” value turned out to be 10.7.

For `CCCCCCCCCCCCCCCC(=O)N[C@@H](CCC(=O)N[C@@H](CCC(=O)NCCOCCOCCC(=O)NCCOCCOCCC(=O)NCCCC[C@H](NC(=O)[C@H](CO)NC(=O)[C@H](CC(=O)O)NC(=O)[C@H](CC(C)C)NC(=O)C(C)(C)NC(=O)[C@H](CCCCN)NC(=O)[C@H](CO)NC(=O)[C@@H](NC(=O)[C@H](CC(=O)O)NC(=O)[C@H](CO)NC(=O)[C@@H](NC(=O)[C@](C)(Cc1ccccc1)NC(=O)[C@H](CO)NC(=O)CNC(=O)[C@H](CCC(N)=O)NC(=O)[C@H](CO)NC(=O)[C@@H](N)Cc1c[nH]cn1)[C@@H](C)O)C(C)C)C(=O)N[C@@H](CCC(N)=O)C(=O)N[C@@H](C)C(=O)N[C@@H](CCC(N)=O)C(=O)N[C@@H](CC(=O)O)C(=O)N[C@@](C)(Cc1ccccc1)C(=O)N[C@H](C(=O)N[C@@H](CCC(N)=O)C(=O)N[C@@H](Cc1c[nH]cn1)C(=O)N[C@H](C(=O)N[C@@H](C)C(=O)N[C@@H](CC(N)=O)C(N)=O)[C@@H](C)CC)C(C)C)C(=O)O)C(=O)O` [Peptide 107] (H-HSQGS[αMeF]TSDVSK[Aib]LDSK([PEG2-PEG2-γGlu-γGlu-Palmitoyl])QAQD[αMeF]VQHIAN-NH2; N-terminus assumed), the EC50 in assay [1] was determined as 0.0991 nM. Moreover, in assay [2], the EC50 came out at 0.0659 nM and the “% Relative Potency Ratio” value stood at 3.0.

Consider `CC[C@H](C)[C@H](NC(=O)C(C)(C)NC(=O)[C@H](CCC(N)=O)NC(=O)[C@@H](NC(=O)[C@](C)(Cc1ccccc1)NC(=O)[C@H](CC(=O)O)NC(=O)[C@H](CCC(N)=O)NC(=O)[C@H](C)NC(=O)[C@H](C)NC(=O)[C@H](CCCCNC(=O)COCCOCCNC(=O)COCCOCCNC(=O)CC[C@H](NC(=O)CCCCCCCCCCCCCCCCC(=O)O)C(=O)O)NC(=O)[C@H](CO)NC(=O)[C@H](CC(=O)O)NC(=O)[C@H](CC(C)C)NC(=O)C(C)(C)NC(=O)[C@H](CCCCN)NC(=O)[C@H](CO)NC(=O)[C@@H](NC(=O)[C@H](CC(=O)O)NC(=O)[C@H](CO)NC(=O)[C@@H](NC(=O)[C@](C)(Cc1ccccc1)NC(=O)[C@H](CO)NC(=O)CNC(=O)[C@H](CCC(N)=O)NC(=O)[C@H](CO)NC(=O)[C@@H](N)Cc1c[nH]cn1)[C@@H](C)O)C(C)C)C(C)C)C(=O)N[C@@H](C)C(=O)N[C@@H](CC(N)=O)C(N)=O` [Peptide 108] (H-HSQGS[αMeF]TSDVSK[Aib]LDSK([AEEA-AEEA-γGlu-C18 diacid])AAQD[αMeF]VQ[Aib]IAN-NH2; N-terminus assumed), for which the EC50 in assay [1] is over 27.1 nM; in assay [2] it was 3.2 nM.

With `CC[C@H](C)[C@H](NC(=O)C(C)(C)NC(=O)[C@H](CCC(N)=O)NC(=O)[C@@H](NC(=O)[C@](C)(Cc1ccccc1)NC(=O)[C@H](CC(=O)O)NC(=O)[C@H](CCC(N)=O)NC(=O)[C@H](C)NC(=O)[C@H](C)NC(=O)[C@H](CCCCNC(=O)COCCOCCNC(=O)COCCOCCNC(=O)CC[C@H](NC(=O)CCCCCCCCCCCCCCCCC(=O)O)C(=O)O)NC(=O)[C@H](CO)NC(=O)[C@H](CC(=O)O)NC(=O)[C@H](CC(C)C)NC(=O)C(C)(C)NC(=O)[C@H](CCCCNC(C)=O)NC(=O)[C@H](CO)NC(=O)[C@@H](NC(=O)[C@H](CC(=O)O)NC(=O)[C@H](CO)NC(=O)[C@@H](NC(=O)[C@](C)(Cc1ccccc1)NC(=O)[C@H](CO)NC(=O)CNC(=O)[C@H](CCC(N)=O)NC(=O)[C@H](CO)NC(=O)[C@@H](N)Cc1c[nH]cn1)[C@@H](C)O)C(C)C)C(C)C)C(=O)N[C@@H](C)C(=O)N[C@@H](CC(N)=O)C(N)=O` [Peptide 109] (H-HSQGS[αMeF]TSDVSK(Ac)[Aib]LDSK([AEEA-AEEA-γGlu-C18 diacid])AAQD[αMeF]VQ[Aib]IAN-NH2; N-terminus assumed), the concentration giving a half-maximal response (EC50) is over 26.8 nM in assay [1] and 0.698 nM in assay [2].

For `CCCCCCCCCCCCCCCCCC(=O)N[C@@H](CCC(=O)N[C@@H](CCC(=O)NCCOCCOCCC(=O)NCCOCCOCCC(=O)NCCCC[C@H](NC(=O)[C@H](CO)NC(=O)[C@H](CC(=O)O)NC(=O)[C@H](CC(C)C)NC(=O)C(C)(C)NC(=O)[C@H](CCCCNC(C)=O)NC(=O)[C@H](CO)NC(=O)[C@@H](NC(=O)[C@H](CC(=O)O)NC(=O)[C@H](CO)NC(=O)[C@@H](NC(=O)[C@](C)(Cc1ccccc1)NC(=O)[C@H](CO)NC(=O)CNC(=O)[C@H](CCC(N)=O)NC(=O)[C@H](CO)NC(=O)[C@@H](N)Cc1c[nH]cn1)[C@@H](C)O)C(C)C)C(=O)N[C@@H](C)C(=O)N[C@@H](C)C(=O)N[C@@H](CCC(N)=O)C(=O)N[C@@H](CC(=O)O)C(=O)N[C@@](C)(Cc1ccccc1)C(=O)N[C@H](C(=O)N[C@@H](CCC(N)=O)C(=O)NC(C)(C)C(=O)N[C@H](C(=O)N[C@@H](C)C(=O)N[C@@H](CC(N)=O)C(N)=O)[C@@H](C)CC)C(C)C)C(=O)O)C(=O)O` [Peptide 110] (H-HSQGS[αMeF]TSDVSK(Ac)[Aib]LDSK([PEG2-PEG2-γGlu-γGlu-Stearoyl])AAQD[αMeF]VQ[Aib]IAN-NH2; N-terminus assumed), the EC50 in assay [1] amounted to 0.0485 nM. In assay [2], the “% Relative Potency Ratio” value was determined as 152.9.

As for `CCCCCCCCCCCCCCCC(=O)N[C@@H](CCC(=O)N[C@@H](CCC(=O)NCCOCCOCCC(=O)NCCOCCOCCC(=O)NCCCC[C@H](NC(=O)[C@H](CO)NC(=O)[C@H](CC(=O)O)NC(=O)[C@H](CC(C)C)NC(=O)[C@@H](NC(=O)[C@H](CCCCN)NC(=O)[C@H](CO)NC(=O)[C@@H](NC(=O)[C@H](CC(=O)O)NC(=O)[C@H](CO)NC(=O)[C@@H](NC(=O)[C@](C)(Cc1ccccc1)NC(=O)[C@H](CO)NC(=O)CNC(=O)[C@H](CCC(N)=O)NC(=O)[C@H](CO)NC(=O)[C@@H](N)Cc1c[nH]cn1)[C@@H](C)O)C(C)C)[C@@H](C)CC)C(=O)N[C@@H](C)C(=O)N[C@@H](C)C(=O)N[C@@H](CCC(N)=O)C(=O)N[C@@H](CC(=O)O)C(=O)N[C@@](C)(Cc1ccccc1)C(=O)N[C@H](C(=O)N[C@@H](CCC(N)=O)C(=O)NC(C)(C)C(=O)N[C@H](C(=O)N[C@@H](C)C(=O)N[C@@H](CC(N)=O)C(N)=O)[C@@H](C)CC)C(C)C)C(=O)O)C(=O)O` [Peptide 111] (H-HSQGS[αMeF]TSDVSKILDSK([PEG2-PEG2-γGlu-γGlu-Palmitoyl])AAQD[αMeF]VQ[Aib]IAN-NH2), the EC50 in assay [1] was 0.00209 nM; in assay [2], 0.00192 nM. In addition, the “% Relative Potency Ratio” value in assay [2] is 2.2.

For the compound `CCCCCCCCCCCCCCCC(=O)N[C@@H](CCC(=O)N[C@@H](CCC(=O)NCCOCCOCCC(=O)NCCOCCOCCC(=O)NCCCC[C@H](NC(=O)[C@H](CO)NC(=O)[C@H](CC(=O)O)NC(=O)[C@H](CC(C)C)NC(=O)[C@@H](NC(=O)[C@H](CCCCN)NC(=O)[C@H](CO)NC(=O)[C@@H](NC(=O)[C@H](CC(=O)O)NC(=O)[C@H](CO)NC(=O)[C@@H](NC(=O)[C@](C)(Cc1ccccc1)NC(=O)[C@H](CO)NC(=O)CNC(=O)[C@H](CCC(N)=O)NC(=O)[C@H](CO)NC(=O)[C@@H](N)Cc1c[nH]cn1)[C@@H](C)O)C(C)C)[C@@H](C)CC)C(=O)N[C@@H](C)C(=O)N[C@@H](C)C(=O)N[C@@H](CCC(N)=O)C(=O)N[C@@H](CC(=O)O)C(=O)N[C@@](C)(Cc1ccccc1)C(=O)N[C@H](C(=O)N[C@@H](CCC(N)=O)C(=O)N[C@H](C(=O)N[C@H](C(=O)N[C@@H](C)C(=O)N[C@@H](CC(N)=O)C(N)=O)[C@@H](C)CC)[C@@H](C)CC)C(C)C)C(=O)O)C(=O)O` [Peptide 112] (H-HSQGS[αMeF]TSDVSKILDSK([PEG2-PEG2-γGlu-γGlu-Palmitoyl])AAQD[αMeF]VQIIAN-NH2), in assay [1], the EC50 came to 0.00269 nM. For the same compound, in assay [2], the EC50 is 0.00336 nM and the “% Relative Potency Ratio” value is reported as 1.6.

Take `CCCCCCCCCCCCCCCC(=O)N[C@@H](CCC(=O)N[C@@H](CCC(=O)NCCOCCOCCC(=O)NCCOCCOCCC(=O)NCCCC[C@H](NC(=O)[C@H](CO)NC(=O)[C@H](CC(=O)O)NC(=O)[C@H](CC(C)C)NC(=O)[C@@H](NC(=O)[C@H](CCCCN)NC(=O)[C@H](CO)NC(=O)[C@@H](NC(=O)[C@H](CC(=O)O)NC(=O)[C@H](CO)NC(=O)[C@@H](NC(=O)[C@](C)(Cc1ccccc1)NC(=O)[C@H](CO)NC(=O)CNC(=O)[C@H](CCC(N)=O)NC(=O)[C@H](CO)NC(=O)[C@@H](N)Cc1c[nH]cn1)[C@@H](C)O)C(C)C)[C@@H](C)CC)C(=O)N[C@@H](C)C(=O)N[C@@H](C)C(=O)N[C@@H](CCC(N)=O)C(=O)N[C@@H](CC(=O)O)C(=O)N[C@@](C)(Cc1ccccc1)C(=O)N[C@H](C(=O)N[C@@H](CCC(N)=O)C(=O)N[C@H](C(=O)N[C@H](C(=O)N[C@@H](C)C(=O)NCC(N)=O)[C@@H](C)CC)[C@@H](C)CC)C(C)C)C(=O)O)C(=O)O` [Peptide 113] (H-HSQGS[αMeF]TSDVSKILDSK([PEG2-PEG2-γGlu-γGlu-Palmitoyl])AAQD[αMeF]VQIIAG-NH2; N-terminus assumed): the EC50 in assay [1] is 0.0046 nM; in assay [2], 0.00161 nM. In addition, the “% Relative Potency Ratio” value in assay [2] was found to be 5.6.
